Literature values, collected in patent US20150328277A1 (Teva Pharmaceutical Industries, Ltd., priority 2012, published 2015).
Like-named read-outs stand apart in the source and are kept apart here.

Columns and labels:
[1] = tested on: experimental autoimmune encephalomyelitis (EAE); settings: orally administered; mice
[2] = tested on: relapsing multiple sclerosis; settings: administered orally; clinical trial
[3] = tested on: experimental autoimmune encephalomyelitis (EAE); settings: orally administered; rats
multiple sclerosis = settings: 20 mg/day subcutaneous (s.c.); MS patients

## L-glutamic acid polymer with L-alanine, L-lysine, L-tyrosine, acetate (salt) [glatiramer acetate]
[1]
  induction of EAE: inhibited the induction of experimental autoimmune encephalomyelitis (EAE)
[2]
  relapse rate or other clinical MRI parameters of disease activity: did not affect relapse rate or other clinical MRI parameters of disease activity
[3]
  induction of EAE: inhibited the induction of experimental autoimmune encephalomyelitis (EAE)
Multiple sclerosis
  total number of enhancing lesions as measured by MRI: reduce the total number of enhancing lesions
